Data as given in PMC5335257, “Promoting in vivo remyelination with small molecules: a neuroreparative pharmacological treatment for Multiple Sclerosis” (Scientific Reports, 2017).

Legend:
[1] = system: corpus callosum of LPC-injected mice; experiment: In vivo remyelination, LPC demyelination model; parameters: species or system C57/BL6 male mice; conditions: 10 mg/kg i.p. from 9 dpi
Procedure: Anaesthetized 8 week old C57/BL6 male mice were injected with 2 μl of 1% LPC through a hole drilled in the skull at stereotactic coordinates 1.2 mm posterior, 0.5 mm lateral, 1.4 mm deep to the bregma over 4 minutes using a 30-gauge needle attached to a Hamilton syringe, driven by a KD Scientific Nano pump, for 4 minutes to reduce backflow as previously described. At 9 days post injection (dpi), the first intraperitoneal dose of PDE7-GSK3 inhibitors (VP1.15 or VP3.15; 10 mg/kg of animal) was injected using the same solution detailed above for the cuprizone model. Each inhibitor was injected into a group of 10 mice and another group of 10 mice was injected with the vehicle. Two days after, a second dose was injected (11 dpi) and 5 mice of each group were perfused at 14 dpi with 4% PFA and 2% glutaraldehyde (GTA) in phosphate buffer. The remaining 5 animals of each group received a third injection of inhibitors (15 dpi) and were perfused at 21 dpi. A control group of 3 non-lesioned and non-treated mice was used as control. Fixed brains were post-fixed in 1% GTA for 7 days and then coronally cut into 1 mm slices. The slices containing the injected areas were selected and the area of interest was cut and processed for electron microscopy into a resin (Araldite/TAAB 812 Resin Kit, TAAB) following manufacturer instructions.
In order to detect the injured areas for investigation, sagittal semi-thin sections (1 μm) were cut using an ultramicrotome (Leica) and stained with toluidine blue. Ultra-thin sections (60 nm thick) were cut and stained in uranyl acetate and lead citrate and the ultrastructure was analysed taking images with a GatanOrius CCD camera coupled to a transmission electronic microscope (Philips CM120). The percentage of myelinated fibres and the thickness of myelin sheaths were examined. The mean percentage of myelinated fibres was measured from 10 fields per animal. Grids were overlaid onto the images and all axons intersecting with the grid lines were counted as myelinated or not[83][84]. The thickness of myelin around myelinated fibres was expressed as a g-ratio (axon perimeter divided by myelinated fibre perimeter) using ImageJ by tracing around a minimum of 100 individual fibres per mouse, using a pen and electronic pad (Bamboo pad, Wacom). To select the fibres randomly, a grid composed by 8 μm[2] squares was overlaid onto the images and fibres in alternate squares were measured. Data were expressed as the mean ± SEM.

OPCs from P0 mice = experiment: Proliferation assay (BrdU incorporation); type: cell-based, mouse; conditions: murine P0 OPCs, 1 μM, 72 h
Procedure: We isolated OPCs, as previously described. Briefly, a stock papain solution was prepared containing ([…]; Worthington Biochemical), L-cysteine (0.2 mg/ml; Sigma), and EDTA (0.2 mg/ml; Sigma) in Hank’s Balanced Salt Solution (HBSS; Invitrogen) without Ca^2+ and Mg[2]. Then, the cerebral cortices of P0 CD1 mice were dissected out and placed for 5 minutes at 37 °C in a medium containing the stock papain solution in HBSS with Ca^2+ and Mg^2+ (1:10; Invitrogen) in order to easily remove the meninges. […] The resulting enriched oligodendrocyte progenitor cell suspension was counted and seeded.
OPCs were placed on coverslips coated with poly-L-lysine (Sigma) and laminin (Sigma; 2 × 10^4 cells/well) and they were incubated with the inhibitors (VP3.15 or TDZD8; 1 μM) in the serum free medium described above. After 42 h in culture, BrdU (50 μM; Sigma) was added for 6 h and after a total of 72 h in culture, the cells were fixed and BrdU incorporation was detected by immunocytochemistry (1:20; G3G4, HybridomaBank) combined with the detection of the oligodendroglial marker Olig2 (1:250; Millipore; Cat#AB9610). […]

## c1ccc(-c2n/c(=N/CCN3CCOCC3)sn2-c2ccccc2)cc1 [VP3.15]
[1]
  thickness of myelin sheaths (G-ratio) vs untreated demyelinated control: increased the thickness
[1]; analysed at 14 or 21 dpi
  percentage of myelinated callosal fibers vs vehicle: did not show any effect
OPCs from P0 mice
  OPC proliferation (BrdU+-Olig2+ cells): no changes
